In patent publication US7560491B2, “Z-stilbenes derivatives and the pharmaceutical composition thereof” (Taipei Medical University, priority 2006, dated 2009):

Row | melting point [°C] | SMILES
1 | 83.2 to 86.3 | COc1ccc(/C=C\c2cc(OC)cc(OC)c2N)cc1
2 | 62.7 to 63.8 | COc1ccc(/C=C\c2cc(OC)c(OC)cc2N)cc1
3 | 97.3 to 98.1 | COc1ccc(/C=C\c2cc(OC)c(OC)c(OC)c2N)cc1N
